In US10420845B2, “Taggable heteroaromatic drugs and conjugates thereof” (Ramot at Tel-Aviv University Ltd., priority 2015, dated 2019):

Assays:
SF-295 = assay: tumor cell-growth inhibition assay, SF-295 cells; type: cell-based; conditions: Homo sapiens; cell line SF-295
Protocol: (§1) In order to find out whether the new derivatives retain their potency, the cytotoxicity of the CPT-, TMZ- and bosutinib-ketone analogues was evaluated in comparison to that of the parent drugs.

[1] = tested on: U-87 human primary glioblastoma cell; assay: tumor cell-growth inhibition assay, U-87 cells; type: cell-based; conditions: U-87 MG
Protocol: as §1
To determine the usefulness of the drug analogues produced harboring a ketone for controlled release and bioconjugation. CPT-ketone 2a was selected for further evaluation. As presented in Scheme 1, a ketone functional group can be masked either through an acid-labile hydrazone linkage or with a photo-labile ketal protecting group. CPT-ketone 2a was masked with a photo-labile protecting group (Gravel et al., 1983; Klan et al., 2013) to produce ketal derivative 6 (FIG. 5). This derivative can be considered as prodrug form of CPT-ketone 2a. […] The cytotoxicity of prodrug 6 was then evaluated in a standard cell-growth inhibition assay before and after irradiation with UV light (FIG. 5B). […] In this example, the prodrug was activated with UV light; however, there are analogues protecting groups that can be removed through a visible or near infrared light (Lu et al., 2003).

HiFR KB cells = assay: proliferation (MTT) assay on KB HiFR cells; type: cell-based; conditions: human
Protocol: Proliferation Assay KB HiFR were seeded in 96 well/plates, 2×10^3 cell/100 μL in folate depleted RPMI+10% FBS. After 24 h incubation at 37° C., 5% CO2, 100 μL of serial dilutions (200-0.00002 μM CPT equivalent concentrations) of CPT and CPT-derivatives were added to the wells (final concentration 100-0.00001 μM). In the short exposure (pulse and chase) experiment the treatments were removed after 10 min incubation at 37° C., 5% CO2, the cells were washed once with PBS and incubated with fresh folate depleted RPMI+10% FBS for 72 h. In the long exposure experiment, the cells were incubated for 72 h with the treatment. After 72 h incubation, 30 μL of […] of MTT (3-(4,5-dimethylthiazol-2-yl)-2,5-diphenyltetrazolium bromide) in PBS were added to each well, and incubated for 5 h. After incubation the medium was removed and the cells lysed in 200 μL DMSO and kept under gentle stirring protected from light for 20 min. Absorbance was measured at 560 nm and survival plotted as percentage of untreated control.

[2] = release of CPT-ketone 2a from prodrug 6 with and without UV irradiation; type: physicochemical
tumorous cell-lines = assay: tumor cell-growth inhibition assays of ketone derivatives vs native drugs, several tumorous cell-lines; type: cell-based; conditions: repeated with several tumorous cell-lines
Protocol: as §1
The assays were repeated with several tumorous cell-lines and the obtained results were similar (FIGS. 3-4).

U-251 = assay: tumor cell-growth inhibition assay, U-251 cells; type: cell-based; conditions: Homo sapiens; cell line U-251
Protocol: as §1

## COc1cc(Nc2c(C#N)cnc3cc(OCCCN4CCN(C)CC4)c(OC)cc23)c(Cl)cc1Cl [Bosutinib, bosutinib, reference compound]
SF-295
  IC50: 17000 nM

## COc1cc(Nc2c(C#N)c(C(F)(F)CCCC(C)=O)nc3cc(OCCCN4CCN(C)CC4)c(OC)cc23)c(Cl)cc1Cl [Bosutinib-ketone]
SF-295
  IC50: 17000 nM

## CC[C@@]1(O)C(=O)OCc2c1cc1n(c2=O)Cc2cc3ccccc3nc2-1 [CPT, camptothecin, reference compound]
[1]; cell line U-87
  IC50: 7 nM

## CCC1(O)C(=O)OCc2c1cc1n(c2=O)Cc2c-1nc1ccccc1c2C(F)(F)CCCC(C)=O (stereo not shown) [CPT-ketone]
[1]; cell line U-87
  IC50: 10 nM
[1]; light or radiation study, comparator in prodrug 6 irradiation experiment
  IC50: 5 nM
HiFR KB cells
  IC50 comparison, cytotoxicity on HiFR KB cells: relatively similar IC50 values

## CCC1(O)C(=O)OCc2c1cc1n(c2=O)Cc2c-1nc1ccccc1c2C(F)(F)CCCC1(C)OCC(c2cc(OC)c(OC)cc2[N+](=O)[O-])O1 (stereo not shown) [Compound 6]
[1]; light or radiation study, prodrug after irradiation with UV light
  IC50: 10 nM
[1]; light or radiation study, prodrug before irradiation with UV light
  IC50: 350 nM
[2]; irradiation with UV light over 2 hours under physiological conditions
  release of CPT-ketone 2a: resulted in release of CPT-ketone 2a
[2]; without irradiation
  release of CPT-ketone 2a: No release was observed

## CC(=O)CCCC(F)(F)c1nc2nc(N)nc(N)c2nc1CN(C)c1ccc(C(=O)NC(CCC(=O)O)C(=O)O)cc1 (stereo not shown) [MTX-ketone]
Tumorous cell-lines
  cytotoxicity of ketone analogue compared with native drug: completely lost its cytotoxicity

## Cn1nnc2c(C(N)=O)ncn2c1=O [TMZ, temozolomide, reference compound]
U-251
  IC50: 36000 nM

## CC(=O)CCCC(F)(F)c1nc(C(N)=O)c2nnn(C)c(=O)n12 [TMZ-ketone]
U-251
  IC50: 35000 nM
